Reference: patent publication US6127519A, “Calcitonin derivatives” (Tsumura & Co., priority 1990, dated 2000)
Numbered stars: 1 amine (or outer) side, 2 acyl side, 3 side chain; on linkers, the order of the positions; unused ones are H or OH. Bridge positions count the residues as written; N and C are the ends. Ends that are not written are not given here. Peptide text beside a SMILES is read from it. Suc = O=C(CCC(=O)[*:2])[*:1]

System: calcium concentration in the serum
Test: Test 1: reduction of calcium level in serum after tail vein administration to rats
Format: in vivo, rats of the Wistar strain
Conditions: 1 ml/kg tail vein, female Wistar rats
Protocol: Six-weeks-old female rats of the Wistar strain (each group consisting of 4 rats) were used as the test animal, and the peptides of the present invention obtained in the examples given hereinafter were tested at concentrations adjusted with a 1% aqueous solution of sodium acetate (pH 4,0) to which 0.1% bovine serum albumin (BSA) was added. The solution was adjusted to a concentration of 166 μg/ml 830 ng/ml or 83 ng/ml and administered with the tail vein in an amount of 1 ml/kg. The back of the rat was fixed and blood was collected just before the administration, and at predetermined intervals after the administration, from the neck vein. The amount of blood collected each time was 0.3 ml. The sampled blood was subjected to centrifugal separation at 3500 rpm for 20 minutes to separate serum and the calcium content in the separated serum was measured by TBA-380 (supplied by Toshiba) using a Wako calcium-measuring kit (o-cpc method), and the ratio of reduction of the calcium concentration in the serum was determined.

[1] = concentration 83 ng/ml, 0 hour (just before administration)
[2] = concentration 83 ng/ml, 2 hours
[3] = concentration 83 ng/ml, 4 hours
[4] = concentration 83 ng/ml, 6 hours
[5] = concentration 830 ng/ml, 0 hour (just before administration)
[6] = concentration 830 ng/ml, 1 hour
[7] = concentration 830 ng/ml, 2 hours
[8] = concentration 830 ng/ml, 4 hours
[9] = concentration 830 ng/ml, 6 hours
[10] = concentration 166 ng/ml, 0 hour (just before administration)
[11] = concentration 166 ng/ml, 1 hour
[12] = concentration 166 ng/ml, 2 hours
[13] = concentration 166 ng/ml, 4 hours
[14] = concentration 166 ng/ml, 6 hours

CC[C@H](C)[C@H](NC(=O)[C@H](C)NC(=O)[C@@H](NC(=O)[C@H](CCC(N)=O)NC(=O)[C@@H]1CCCN1C(=O)[C@H](Cc1ccc(O)cc1)NC(=O)[C@@H](NC(=O)[C@H](CCC(N)=O)NC(=O)[C@H](CC(C)C)NC(=O)[C@H](CCCCN)NC(=O)[C@H](Cc1c[nH]cn1)NC(=O)[C@H](CC(C)C)NC(=O)[C@H](CCC(=O)O)NC(=O)[C@H](CCC(N)=O)NC(=O)[C@H](CO)NC(=O)[C@H](CC(C)C)NC(=O)[C@H](CCCCN)NC(=O)CNC(=O)[C@H](CC(C)C)NC(=O)[C@H](CC(C)C)NC(=O)[C@@H]1CC(=O)NCCCC[C@H](N)C(=O)N[C@@H](CC(N)=O)C(=O)N[C@@H](CC(C)C)C(=O)N[C@@H](CO)C(=O)N[C@@H]([C@@H](C)O)C(=O)N1)[C@@H](C)O)[C@@H](C)O)C(=O)NCC(=O)N[C@H](C(=O)NCC(=O)N[C@@H](C)C(=O)N1CCC[C@H]1C(N)=O)C(C)C [Peptide No. 28] (H-KNLSTDLLGKLSQELHKLQTYPQTAIGVGAP-NH2; lactam 1-6)
Serum calcium level as percent of pre-dose baseline [1]: 100.0% | Serum calcium level as percent of pre-dose baseline (concentration 83 ng/ml, 1 hour): 83.7% | Serum calcium level as percent of pre-dose baseline [2]: 87.7% | Serum calcium level as percent of pre-dose baseline [3]: 82.6% | Serum calcium level as percent of pre-dose baseline [4]: 80.8% | Serum calcium level as percent of pre-dose baseline [5]: 100.0% | Serum calcium level as percent of pre-dose baseline [6]: 73.5% | Serum calcium level as percent of pre-dose baseline [7]: 87.2% | Serum calcium level as percent of pre-dose baseline [8]: 83.8% | Serum calcium level as percent of pre-dose baseline [9]: 81.6%

CC[C@H](C)[C@H](NC(=O)[C@H](C)NC(=O)[C@@H](NC(=O)[C@H](CCC(N)=O)NC(=O)[C@@H]1CCCN1C(=O)[C@H](Cc1ccc(O)cc1)NC(=O)[C@@H](NC(=O)[C@H](CCC(N)=O)NC(=O)[C@H](CC(C)C)NC(=O)[C@H](CCCCN)NC(=O)[C@H](Cc1c[nH]cn1)NC(=O)[C@H](CC(C)C)NC(=O)[C@H](CCC(=O)O)NC(=O)[C@H](CCC(N)=O)NC(=O)[C@H](CO)NC(=O)[C@H](CC(C)C)NC(=O)[C@H](CCCCN)NC(=O)CNC(=O)[C@H](CC(C)C)NC(=O)[C@H](CCSC)NC(=O)[C@@H]1CCCCNC(=O)C[C@H](N)C(=O)N[C@@H](CC(N)=O)C(=O)N[C@@H](CC(C)C)C(=O)N[C@@H](CO)C(=O)N[C@@H]([C@@H](C)O)C(=O)N1)[C@@H](C)O)[C@@H](C)O)C(=O)NCC(=O)N[C@H](C(=O)NCC(=O)N[C@@H](C)C(=O)N1CCC[C@H]1C(N)=O)C(C)C [Peptide No. 23] (H-DNLSTKMLGKLSQELHKLQTYPQTAIGVGAP-NH2; lactam 1-6)
Serum calcium level as percent of pre-dose baseline [1]: 100.0% | Serum calcium level as percent of pre-dose baseline (concentration 83 ng/ml, 1 hour): 73.6% | Serum calcium level as percent of pre-dose baseline [2]: 72.2% | Serum calcium level as percent of pre-dose baseline [3]: 83.3% | Serum calcium level as percent of pre-dose baseline [4]: 82.4% | Serum calcium level as percent of pre-dose baseline [5]: 100.0% | Serum calcium level as percent of pre-dose baseline [6]: 68.5% | Serum calcium level as percent of pre-dose baseline [7]: 61.6% | Serum calcium level as percent of pre-dose baseline [8]: 56.9% | Serum calcium level as percent of pre-dose baseline [9]: 71.1%

Peptide No. 20: novel linear calcitonin-derivative peptide, Ala at 1 and 7, Leu8, SEQ ID NO:20 (AGNLTSALLGKLSQELHKLQTYPQTAIGVGAP; ends and bridges not checked)
Serum calcium level as percent of pre-dose baseline [1]: 100.0% | Serum calcium level as percent of pre-dose baseline (concentration 83 ng/ml, 1 hour): 86.6% | Serum calcium level as percent of pre-dose baseline [2]: 88.4% | Serum calcium level as percent of pre-dose baseline [3]: 83.9% | Serum calcium level as percent of pre-dose baseline [4]: 87.5% | Serum calcium level as percent of pre-dose baseline [5]: 100.0% | Serum calcium level as percent of pre-dose baseline [6]: 80.6% | Serum calcium level as percent of pre-dose baseline [7]: 87.8% | Serum calcium level as percent of pre-dose baseline [8]: 82.9% | Serum calcium level as percent of pre-dose baseline [9]: 84.5%

AGNLSTAMLGKLSQELHKLYPQTAIGVGAP-NH2 [Peptide No. 16]
Serum calcium level as percent of pre-dose baseline [10]: 100.0% | Serum calcium level as percent of pre-dose baseline [11]: 80.0% | Serum calcium level as percent of pre-dose baseline [12]: 86.5% | Serum calcium level as percent of pre-dose baseline [13]: 84.8% | Serum calcium level as percent of pre-dose baseline [14]: 85.7%

CC[C@H](C)[C@H](NC(=O)[C@H](C)NC(=O)[C@@H](NC(=O)[C@H](CCC(N)=O)NC(=O)[C@@H]1CCCN1C(=O)[C@H](Cc1ccc(O)cc1)NC(=O)[C@@H](NC(=O)[C@H](Cc1c[nH]cn1)NC(=O)[C@H](Cc1ccccc1)NC(=O)[C@H](CCCCN)NC(=O)[C@H](CC(N)=O)NC(=O)[C@H](CC(C)C)NC(=O)[C@H](CC(=O)O)NC(=O)[C@H](CCC(N)=O)NC(=O)[C@@H](NC(=O)[C@H](CC(C)C)NC(=O)[C@H](CCCCN)NC(=O)CNC(=O)[C@H](CC(C)C)NC(=O)[C@H](CC(C)C)NC(=O)[C@@H]1CCCCNC(=O)CCC(=O)N[C@@H](CC(N)=O)C(=O)N[C@@H](CC(C)C)C(=O)N[C@@H](CO)C(=O)N[C@@H]([C@@H](C)O)C(=O)N1)[C@@H](C)O)[C@@H](C)O)[C@@H](C)O)C(=O)NCC(=O)N[C@H](C(=O)NCC(=O)N[C@@H](C)C(=O)N1CCC[C@H]1C(N)=O)C(C)C [Peptide No. 33] (NLSTKLLGKLTQDLNKFHTYPQTAIGVGAP-NH2; linker N-5 via Suc)
Serum calcium level as percent of pre-dose baseline [1]: 100.0% | Serum calcium level as percent of pre-dose baseline (concentration 83 ng/ml, 1 hour): 78.2% | Serum calcium level as percent of pre-dose baseline [2]: 70.0% | Serum calcium level as percent of pre-dose baseline [3]: 92.4% | Serum calcium level as percent of pre-dose baseline [4]: 86.0% | Serum calcium level as percent of pre-dose baseline [5]: 100.0% | Serum calcium level as percent of pre-dose baseline [6]: 80.8% | Serum calcium level as percent of pre-dose baseline [7]: 71.8% | Serum calcium level as percent of pre-dose baseline [8]: 63.5% | Serum calcium level as percent of pre-dose baseline [9]: 55.1%

CC[C@H](C)[C@H](NC(=O)[C@H](C)NC(=O)[C@@H](NC(=O)[C@H](CCC(N)=O)NC(=O)[C@@H]1CCCN1C(=O)[C@H](Cc1ccc(O)cc1)NC(=O)[C@@H](NC(=O)[C@H](Cc1c[nH]cn1)NC(=O)[C@H](Cc1ccccc1)NC(=O)[C@H](CCCCN)NC(=O)[C@H](CC(N)=O)NC(=O)[C@H](CC(C)C)NC(=O)[C@H](CC(=O)O)NC(=O)[C@H](CCC(N)=O)NC(=O)[C@H](CO)NC(=O)[C@H](CC(C)C)NC(=O)[C@H](CCCCN)NC(=O)CNC(=O)[C@H](CC(C)C)NC(=O)[C@H](CC(C)C)NC(=O)[C@@H]1CCCCNC(=O)CCC(=O)N[C@@H](CC(N)=O)C(=O)N[C@@H](CC(C)C)C(=O)N[C@@H](CO)C(=O)N[C@@H]([C@@H](C)O)C(=O)N1)[C@@H](C)O)[C@@H](C)O)C(=O)NCC(=O)N[C@H](C(=O)NCC(=O)N[C@@H](C)C(=O)N1CCC[C@H]1C(N)=O)C(C)C [Peptide No. 32] (NLSTKLLGKLSQDLNKFHTYPQTAIGVGAP-NH2; linker N-5 via Suc)
Serum calcium level as percent of pre-dose baseline [1]: 100.0% | Serum calcium level as percent of pre-dose baseline (concentration 83 ng/ml, 1 hour): 82.4% | Serum calcium level as percent of pre-dose baseline [2]: 76.1% | Serum calcium level as percent of pre-dose baseline [3]: 79.1% | Serum calcium level as percent of pre-dose baseline [4]: 84.1% | Serum calcium level as percent of pre-dose baseline [5]: 100.0% | Serum calcium level as percent of pre-dose baseline [6]: 84.5% | Serum calcium level as percent of pre-dose baseline [7]: 73.6% | Serum calcium level as percent of pre-dose baseline [8]: 65.9% | Serum calcium level as percent of pre-dose baseline [9]: 64.2%

AGNLSTAMLGKLSQELHKLQTYPQTAIGVGAP-NH2 [Peptide No. 14]
Serum calcium level as percent of pre-dose baseline [10]: 100.0% | Serum calcium level as percent of pre-dose baseline [11]: 76.0% | Serum calcium level as percent of pre-dose baseline [12]: 70.0% | Serum calcium level as percent of pre-dose baseline [13]: 74.3% | Serum calcium level as percent of pre-dose baseline [14]: 73.7%
